Key:
P2Y6-R = molecular target: T1, P2Y6-R (Homo sapiens, UniProt Q15077); test: [Ca2+]i increase in 1321N1 astrocytoma cells expressing P2Y6-R; type: cell-based; conditions: for EC50: 1321N1 astrocytoma cells, [Ca2+]i, read-out: Potencies (EC50) at the P2Y6-R
T1 construct: expressed in transfected cells; host or cells: 1321N1 astrocytoma cells
Protocol: Green fluorescent protein (GFP) constructs of human P2Y2-R, P2Y4-R and P2Y6-R were expressed in 1321N1 astrocytoma cells, which lack endogenous expression of P2X- and P2Y-receptors. The respective cDNA of the receptor gene was cloned into a pEGFPN1 vector. After transfection using FuGENE 6 Transfection Reagent (Roche Molecular Biochemicals, Mannheim, Germany), the cells were selected with 0.5 mg/ml G418 (geneticine; Merck Chemicals, Darmstadt, Germany) and grown in Dulbecco's modified Eagles' medium (DMEM) supplemented with 10% fetal calf serum, 100 U/ml penicillin and […] at 37° C. and 5% CO2. The expression and cell membrane localization of the respective P2Y receptors was confirmed through the analysis of the GFP fluorescence. The functionality of the expressed GFP-labeled receptor in cells was verified by recording a change of [Ca^2+]i after stimulation with the appropriate receptor agonist.
1321N1 astrocytoma cells transfected with the respective plasmid for P2YR-GFP expression plated on coverslips (22 mm diameter) and grown to approximately 80% density were incubated with 2 μM fura 2/AM and 0.02% pluronic acid in Na-HBS buffer (Hepes buffered saline: 145 mM NaCl, 5.4 mM KCl, 1.8 mM CaCl2, 1 mM MgCl2, 25 mM glucose, 20 mM Hepes/Tris pH 7.4) for 30 min at 37° C. The cells were superfused (1 ml/min, 37° C.) with different concentrations of nucleotide in Na-HBS buffer, and the nucleotide-induced change of [Ca^2+]i was measured by detecting the respective emission intensity of fura 2/AM at 510 nm with after 340 nm and 380 nm excitations (Ubl et al., 1998). The average maximal amplitude of the responses and the respective standard errors were calculated from the ratio of the fura 2/AM fluorescence intensities with excitations at 340 nm and 380 nm (only MT-labeled cells were analysed). Microsoft Excel (Microsoft Corp., Redmond, Wash., USA) and SigmaPlot (SPSS Inc., Chicago, Ill., USA) were used to derive the concentration-response curves and EC50 values from the average response amplitudes obtained in at least three independent experiments (Ecke et al., 2006, 2008). Only cells with a clear MT-signal and with the typical calcium response kinetics upon agonist pulse application were included in the data analysis. The GFP-tagged P2Y receptors are suitable for pharmacological and physiological studies, as previously reported (Tulapurkar et al., 2004, 2006; Zylberg et al., 2007).
1321N1 cell lines stably expressing the human P2Y6 receptors were grown as previously described in DMEM (5% FBS, 100 IU/ml penicillin, 100 μg/ml streptomycin, 1× Glutamax, 10 mM Hepes and 0.5 mg/ml G-418) at 37° C. in a humidified atmosphere containing 5% CO2 and 95% air (Gendron et al., 2003).
1321N1 cells (10×10^6 cells grown in 10 cm^2 dishes) were harvested by a brief trypsin/EDTA treatment, suspended in complete culture medium, and washed by centrifugation for 3 min at 100×g before being incubated with 1 μM Fluo 4/AM in 4.5 ml HBSS with Ca^2+ and Mg^2+ (Wisent, St. Bruno, QC) for 25 min at 37° C. Cells were washed by centrifugation (100×g, 3 min), suspended in HBSS containing Ca^2+ and Mg^2+, and incubated for 25 min at 37° C. Cells were washed and suspended in 16 ml of FIBSS containing Ca^+ and Mg^2+. Cell suspension (2 ml) was gently stirred in a quartz cuvette while [Ca^2+]i and monitored on a RF-5301 PC Shimadzu spectrofluorometer with Panormama fluorescence 1.1 software (Man-Tech, Guelph, ON). Excitation wavelengths of 488 nm and emission wavelength of 520 nm were used to measure changes in intracellular Fluo 4 fluorescence intensity (F). At the end of each recording, maximal fluorescence (Fmax) and minimal fluorescence (Fmin) were determined by adding successively 0.1% Triton X-100 and 50 mM EDTA to cell suspensions. The following equation from Grynkiewicz et al. (1985) was used to relate the fluorescence intensity to Ca^2+ levels: [Ca^2+]=Kd×(F−Fmin)/(Fmax−F), wherein Kd is the Ca^+ dissociation constant of the indicator (345 nM). […]

[1] = system: intraocular pressure in normotense rabbits; test: Intraocular pressure (IOP) in normotense rabbits; type: in vivo, New Zealand white rabbits; conditions: for Reduction of IOP: applied to the cornea, 100 μM, 10 μl
Protocol: Twenty-four male New Zealand white rabbits (2.5±0.5 kg) were kept in individual cages with free access to food and water on controlled 12 h/12 h light/dark cycles. All the protocols used adhere to the Association for Research in Vision and Ophthalmology (ARVO) Statement for the Use of Animals in Ophthalmology and Vision Research and also are in accordance with the European Communities Council Directive (86/609/EEC).
Intraocular pressure (IOP) was measured by means of a TonoVET rebound tonometer supplied by Tiolat Oy (Helsinki, Finland). […] For single dose experiments, different analogues were applied unilaterally to the cornea at a concentration of 100 μM and a fixed volume of 10 μl. The contralateral eye received the same volume of saline solution (0.9% NaCl, vehicle). Two IOP measurements were taken before any analogue was instilled. Experiments were performed following a blinded design where no visible indication was given to the experimenter as to the nature of the applied solution. IOP was followed up to 8 h to study the time course of the effect. Some of the analogues were assayed over a range of doses from 1 nM to 100 μM to generate dose-response curves. For these experiments, […] was measured as the maximal response obtained with each dose of the analogue. Dose-response curves were calculated by plotting the IOP value for given concentration versus that concentration (from 1 nM to 100 μM). pD2 values were obtained by fitting the values to a dose-response-curve equation according to ORIGIN8.0 software. With the pD2 value it was possible to calculate the EC50 by multiplying by −1 and then take the antilogarithm. The obtained value is the EC50 expressed in molar concentration. In all experiments, on any given day, only a single dose was tested on a single animal, which was washed out at least 2 days between doses. […]
All data are presented as the means±s.e.m. Significant differences were determined by two-tailed Student's t-tests. […]

P2Y6-receptor = P2Y6-receptor (Homo sapiens, UniProt Q15077); conditions: Ginsburg-Shmuel et al., 2010; read-out: EC50 at P2Y6-receptor (literature); cited from earlier work
P2Y6-receptor, sequence (Q15077 whole entry): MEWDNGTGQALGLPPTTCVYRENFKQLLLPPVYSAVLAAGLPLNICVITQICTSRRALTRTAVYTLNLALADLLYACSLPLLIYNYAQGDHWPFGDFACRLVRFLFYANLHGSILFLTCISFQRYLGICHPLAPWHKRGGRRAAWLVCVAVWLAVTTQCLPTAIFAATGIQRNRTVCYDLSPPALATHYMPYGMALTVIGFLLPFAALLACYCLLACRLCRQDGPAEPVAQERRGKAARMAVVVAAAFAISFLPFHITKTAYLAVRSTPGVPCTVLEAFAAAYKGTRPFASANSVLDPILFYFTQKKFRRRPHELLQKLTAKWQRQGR

T1 sequence (Q15077 whole entry): as above

SMILES | EC50 (P2Y6-R) | Potency of A-isomer relative to the corresponding B-isomer at P2Y6-R (P2Y6-R; ratio of EC50 values) | Duration of action (IOP reduction) [1] | Reduction of IOP [1] | EC50 (P2Y6-receptor)
[BH3-][P+](O)(OCC1OC(n2cc(OC)c(=O)[nH]c2=O)C(O)C1O)OP(=O)(O)O (single isomer, unassigned) [Analogue 13A, 5-methoxyuridine-5′-O-(α-boranodiphosphate)] | 8 nM | more than 500 fold | about 4 h | 45% | –
COc1cn([C@@H]2O[C@H](COP(=O)(O)OP(=O)(O)O)[C@@H](O)[C@H]2O)c(=O)[nH]c1=O [Analogue 12, 5-methoxyuridine diphosphate] | – | – | – | 31% | –
O=c1ccn([C@@H]2O[C@H](COP(=O)(O)OP(=O)(O)O)[C@@H](O)[C@H]2O)c(=O)[nH]1 [UDP, reference compound] | 150 nM | – | – | – | 140 nM

— patent US9221868B2, “Uridine di- or tri-phosphate derivatives and uses thereof” (BAR-ILAN UNIVERSITY, priority 2010, dated 2015)
